Test [1] addresses human mGluR5a receptors (Homo sapiens (Human), UniProt P41594). The test can be described thus: inhibition of glutamate-induced elevation of intracellular calcium in L(tk-) cells expressing human mGluR5a. Format: cell-based. To be noted: for IC50: glutamate-induced intracellular calcium elevation, L(tk-) cells expressing human mGluR5a, read-out: mGluR5 IC50; for inhibition at 2 µM: LTK, read-out: mGluR5 % inhibition at 2 μM. A digest of the protocol: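 Compounds tested for inhibition of the glutamate-induced rise in intracellular calcium concentration in L(tk-) cells stably expressing human mGluR5a.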
For orientation: Calcium assays in cells follow changes in intracellular calcium, usually with a dye or a luminescent sensor.

The target of test [2] is human mGluR1 (Homo sapiens (Human), UniProt Q13255). As to the kind of experiment: mGluR1 antagonism, L-glutamate induced intracellular calcium increase (FLIPR) in CHO cells stably expressing human mGluR1. Format: cell-based. To be noted: L-glutamate induced intracellular calcium, CHO cells expressing human mGluR1, FLIPR.
Chain of human mGluR1 (Q13255 19-1194): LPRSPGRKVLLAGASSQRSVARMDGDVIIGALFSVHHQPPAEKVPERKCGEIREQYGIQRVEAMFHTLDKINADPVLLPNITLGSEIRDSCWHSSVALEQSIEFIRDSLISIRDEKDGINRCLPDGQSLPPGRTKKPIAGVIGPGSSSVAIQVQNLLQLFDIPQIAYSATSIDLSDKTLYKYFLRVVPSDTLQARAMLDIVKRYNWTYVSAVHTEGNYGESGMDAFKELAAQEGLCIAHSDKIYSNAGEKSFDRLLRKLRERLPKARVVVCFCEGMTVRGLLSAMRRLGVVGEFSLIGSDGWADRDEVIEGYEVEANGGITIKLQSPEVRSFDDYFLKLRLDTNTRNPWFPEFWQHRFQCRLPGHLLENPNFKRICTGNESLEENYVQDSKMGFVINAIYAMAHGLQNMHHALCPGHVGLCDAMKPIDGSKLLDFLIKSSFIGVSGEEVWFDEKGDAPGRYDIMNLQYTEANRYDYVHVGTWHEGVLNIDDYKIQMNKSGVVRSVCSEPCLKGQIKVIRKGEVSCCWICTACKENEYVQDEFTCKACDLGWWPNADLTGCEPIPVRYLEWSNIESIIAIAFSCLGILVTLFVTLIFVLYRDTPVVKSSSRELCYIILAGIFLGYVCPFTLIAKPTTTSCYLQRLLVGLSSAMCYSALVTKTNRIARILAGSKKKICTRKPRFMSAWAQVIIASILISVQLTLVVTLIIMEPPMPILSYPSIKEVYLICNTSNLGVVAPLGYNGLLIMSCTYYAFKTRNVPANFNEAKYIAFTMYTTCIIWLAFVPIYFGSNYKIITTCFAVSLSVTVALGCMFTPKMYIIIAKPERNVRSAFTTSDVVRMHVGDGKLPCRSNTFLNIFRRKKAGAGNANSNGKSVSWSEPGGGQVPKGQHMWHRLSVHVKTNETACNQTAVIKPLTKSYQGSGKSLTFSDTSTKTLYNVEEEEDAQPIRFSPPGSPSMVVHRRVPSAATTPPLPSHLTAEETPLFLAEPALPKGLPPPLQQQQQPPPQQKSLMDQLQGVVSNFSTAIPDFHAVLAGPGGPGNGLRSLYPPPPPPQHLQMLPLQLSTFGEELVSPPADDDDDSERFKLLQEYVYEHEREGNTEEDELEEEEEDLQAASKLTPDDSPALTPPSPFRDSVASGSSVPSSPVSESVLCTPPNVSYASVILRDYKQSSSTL

Bounds are passed on as bounds.

Chain of human mGluR5a receptors (P41594 other isoform, or with tags, fused parts or gaps): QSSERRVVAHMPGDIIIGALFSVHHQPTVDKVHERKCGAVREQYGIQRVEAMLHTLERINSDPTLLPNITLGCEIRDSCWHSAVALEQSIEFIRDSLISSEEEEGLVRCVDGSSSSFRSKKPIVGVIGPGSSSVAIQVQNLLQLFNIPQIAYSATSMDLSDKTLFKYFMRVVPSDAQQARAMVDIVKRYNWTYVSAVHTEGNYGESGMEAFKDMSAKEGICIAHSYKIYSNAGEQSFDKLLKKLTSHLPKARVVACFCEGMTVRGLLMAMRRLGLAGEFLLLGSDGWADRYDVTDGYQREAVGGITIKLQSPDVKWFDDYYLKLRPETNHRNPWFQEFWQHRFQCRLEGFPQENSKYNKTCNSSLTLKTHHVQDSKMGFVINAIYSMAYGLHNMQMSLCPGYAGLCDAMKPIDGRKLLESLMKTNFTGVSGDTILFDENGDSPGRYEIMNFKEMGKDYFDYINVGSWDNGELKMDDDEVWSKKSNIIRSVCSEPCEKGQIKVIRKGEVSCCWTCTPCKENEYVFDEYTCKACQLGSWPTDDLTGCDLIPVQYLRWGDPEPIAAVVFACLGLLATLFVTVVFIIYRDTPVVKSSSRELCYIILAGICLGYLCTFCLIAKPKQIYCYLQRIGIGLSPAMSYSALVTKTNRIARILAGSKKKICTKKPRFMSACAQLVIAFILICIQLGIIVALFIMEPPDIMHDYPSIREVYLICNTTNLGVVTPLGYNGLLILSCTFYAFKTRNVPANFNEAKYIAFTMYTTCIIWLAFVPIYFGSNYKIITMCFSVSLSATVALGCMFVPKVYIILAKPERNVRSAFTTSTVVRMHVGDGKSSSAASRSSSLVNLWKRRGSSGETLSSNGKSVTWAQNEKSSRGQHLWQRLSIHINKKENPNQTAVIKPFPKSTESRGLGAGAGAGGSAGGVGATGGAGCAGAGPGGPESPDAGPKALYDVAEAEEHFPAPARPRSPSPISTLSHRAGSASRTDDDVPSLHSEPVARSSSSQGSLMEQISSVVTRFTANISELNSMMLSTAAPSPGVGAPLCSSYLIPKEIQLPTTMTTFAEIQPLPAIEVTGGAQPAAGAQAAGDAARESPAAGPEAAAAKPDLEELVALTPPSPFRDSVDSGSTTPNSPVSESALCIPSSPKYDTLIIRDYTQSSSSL

A word on the IC50: it is the concentration needed to halve the response being measured. For `O=C1CN=C(n2cnc(CF)c2)C=C2c3cccc(C4CC4)c3CCN12` [Example 99m, 9-cyclopropyl-2-(4-(fluoromethyl)-1H-imidazol-1-yl)-7,8-dihydro-[1,4]diazepino[7,1-a]isoquinolin-5(4H)-one], the IC50 in test [1] was found to be 2 nM; in test [2] it was 672 nM.
Take `CO[C@H](C)c1cn(C2=NCC(=O)N3CCc4c(ccc(F)c4C4CC4)C3=C2)cn1` [Example 99n, (R)-9-cyclopropyl-10-fluoro-2-(4-(1-methoxyethyl)-1H-imidazol-1-yl)-7,8-dihydro-[1,4]diazepino[7,1-a]isoquinolin-5(4H)-one]: the IC50 in test [1] came out at 6 nM; in test [2], 2080 nM.
With `Cc1ncn(C2=NCC(=O)N3CCc4c(ccc(F)c4-c4ccc(F)nc4)C3=C2)n1` [Example 99o, 10-fluoro-9-(6-fluoropyridin-3-yl)-2-(3-methyl-1H-1,2,4-triazol-1-yl)-7,8-dihydro-[1,4]diazepino[7,1-a]isoquinolin-5(4H)-one], the IC50 is 50 nM in test [1] and over 10000 nM in test [2].
The corresponding values for `COCc1ncn(C2=NCC(=O)N3CCc4c(ccc(F)c4C4CC4)C3=C2)n1` [Example 99p, 9-cyclopropyl-10-fluoro-2-(3-(methoxymethyl)-1H-1,2,4-triazol-1-yl)-7,8-dihydro-[1,4]diazepino[7,1-a]isoquinolin-5(4H)-one] are 2 nM and 814 nM.
With `O=C1CN=C(n2cnc(C3CC3)n2)C=C2c3ccc(F)c(-c4cccnc4F)c3CCN12` [Example 99q, 2-(3-cyclopropyl-1H-1,2,4-triazol-1-yl)-10-fluoro-9-(2-fluoropyridin-3-yl)-7,8-dihydro-[1,4]diazepino[7,1-a]isoquinolin-5(4H)-one], the values for the concentration for half-maximal inhibition (IC50) in test [1] and in test [2] were 88 nM and over 6000 nM, respectively.
For `Cc1ncn(C2=NCC(=O)N3CCc4c(ccc(F)c4-c4cccnc4F)C3=C2)n1` [Example 99r, 10-fluoro-9-(2-fluoropyridin-3-yl)-2-(3-methyl-1H-1,2,4-triazol-1-yl)-7,8-dihydro-[1,4]diazepino[7,1-a]isoquinolin-5(4H)-one], the IC50 in test [1] is 136 nM; in test [2], over 10000 nM.
Consider `Cc1cn(C2=NCC(=O)N3CCc4c(ccc(F)c4-c4cccnc4F)C3=C2)cn1` [Example 99s, 10-fluoro-9-(2-fluoropyridin-3-yl)-2-(4-methyl-1H-imidazol-1-yl)-7,8-dihydro-[1,4]diazepino[7,1-a]isoquinolin-5(4H)-one], for which the IC50 is 153 nM in test [1] and over 10000 nM in test [2].
On to `O=C1CN=C(n2cnc(C3CC3)c2)C=C2c3cccc(-c4ccno4)c3CCN12` [Example 100, 2-(4-cyclopropyl-1H-imidazol-1-yl)-9-(isoxazol-5-yl)-7,8-dihydro-[1,4]diazepino[7,1-a]isoquinolin-5(4H)-one], for which the half-inhibitory concentration (IC50) in test [1] came to 19 nM; in test [2], 560 nM.
The corresponding values for `COCc1cn(C2=NCC(=O)N3CCc4c(cccc4-c4cscn4)C3=C2)cn1` [Example 101, 2-(4-(methoxymethyl)-1H-imidazol-1-yl)-9-(thiazol-4-yl)-7,8-dihydro-[1,4]diazepino[7,1-a]isoquinolin-5(4H)-one] are 26 nM and over 10000 nM.
The corresponding values for `CCc1ncn(C2=NCC(=O)N3CCc4c(cccc4-c4ccc(F)nc4)C3=C2)n1` [Example 102, 2-(3-ethyl-1H-1,2,4-triazol-1-yl)-9-(6-fluoropyridin-3-yl)-7,8-dihydro-[1,4]diazepino[7,1-a]isoquinolin-5(4H)-one] are 16 nM and over 10000 nM.
The corresponding values for `Cc1cc(-c2cccc3c2CCN2C(=O)CN=C(n4cnc(C5CC5)c4)C=C32)sn1` [Example 103, 2-(4-cyclopropyl-1H-imidazol-1-yl)-9-(3-methylisothiazol-5-yl)-7,8-dihydro-[1,4]diazepino[7,1-a]isoquinolin-5(4H)-one] are 18 nM and over 10000 nM.
For the compound `O=C1CN=C(n2cnc(C3CC3)c2)C=C2c3cccc(-c4ncco4)c3CCN12` [Example 104, 2-(4-cyclopropyl-1H-imidazol-1-yl)-9-(oxazol-2-yl)-7,8-dihydro-[1,4]diazepino[7,1-a]isoquinolin-5(4H)-one], the IC50 turned out to be 7 nM in test [1] and 1300 nM in test [2].
In the case of `C#Cc1cn(C2=NCC(=O)N3CCc4c(cccc4-c4cscn4)C3=C2)cn1` [Example 105, 2-(4-ethynyl-1H-imidazol-1-yl)-9-(thiazol-4-yl)-7,8-dihydro-[1,4]diazepino[7,1-a]isoquinolin-5(4H)-one], the IC50 in test [1] is 122 nM; in test [2], over 10000 nM.
On the same counts, the results for `O=C1CN=C(n2cnc(-c3ncco3)c2)C=C2c3cccc(-c4cccnc4F)c3CCN12` [Example 106, 9-(2-fluoropyridin-3-yl)-2-(4-(oxazol-2-yl)-1H-imidazol-1-yl)-7,8-dihydro-[1,4]diazepino[7,1-a]isoquinolin-5(4H)-one] are 182 nM and over 10000 nM.
Take `COC1(c2cn(C3=NCC(=O)N4CCc5c(cccc5-c5ccc(F)nc5)C4=C3)cn2)CC1` [Example 106a, 9-(6-fluoropyridin-3-yl)-2-(4-(1-methoxycyclopropyl)-1H-imidazol-1-yl)-7,8-dihydro-[1,4]diazepino[7,1-a]isoquinolin-5(4H)-one]: the results for the IC50 in test [1] and in test [2] were 68 nM and over 10000 nM, respectively.
In the case of `Cc1cn(C2=NCC(=O)N3CCc4c(cccc4-c4cnccn4)C3=C2)cn1` [Example 106b, 2-(4-methyl-1H-imidazol-1-yl)-9-(pyrazin-2-yl)-7,8-dihydro-[1,4]diazepino[7,1-a]isoquinolin-5(4H)-one], the IC50 in test [1] turned out to be 168 nM; in test [2], 7330 nM.
As to `O=C1CN=C(n2cnc(C3(O)COC3)c2)C=C2c3cccc(-c4ccc(F)nc4)c3CCN12` [Example 106c, 9-(6-fluoropyridin-3-yl)-2-(4-(3-hydroxyoxetan-3-yl)-1H-imidazol-1-yl)-7,8-dihydro-[1,4]diazepino[7,1-a]isoquinolin-5(4H)-one], the IC50 is 1090 nM in test [1] and over 10000 nM in test [2].
As to `CC1=C2c3cccc(-c4cc(C)no4)c3CCN2C(=O)CN=C1n1cnc(C2CC2)c1` [Example 107, 2-(4-cyclopropyl-1H-imidazol-1-yl)-1-methyl-9-(3-methylisoxazol-5-yl)-7,8-dihydro-[1,4]diazepino[7,1-a]isoquinolin-5(4H)-one], the IC50 is 835 nM in test [1] and over 10000 nM in test [2].
Take `Cc1nc(-c2cccc3c2CCN2C(=O)CN=C(n4cnc(C5CC5)c4)C=C32)co1` [Example 108, 2-(4-cyclopropyl-1H-imidazol-1-yl)-9-(2-methyloxazol-4-yl)-7,8-dihydro-[1,4]diazepino[7,1-a]isoquinolin-5(4H)-one]: the IC50 in test [1] was 18 nM; in test [2] it was 3300 nM.
For `Cc1nc(-c2cccc3c2CCN2C(=O)CN=C(n4cnc(C5CC5)n4)C=C32)co1` [Example 108a, 2-(3-cyclopropyl-1H-1,2,4-triazol-1-yl)-9-(2-methyloxazol-4-yl)-7,8-dihydro-[1,4]diazepino[7,1-a]isoquinolin-5(4H)-one], the IC50 is 91 nM in test [1] and over 10000 nM in test [2].
On the same counts, the results for `Cc1cn(C2=NCC(=O)N3CCc4c(cccc4-c4coc(C)n4)C3=C2)cn1` [Example 108c, 2-(4-methyl-1H-imidazol-1-yl)-9-(2-methyloxazol-4-yl)-7,8-dihydro-[1,4]diazepino[7,1-a]isoquinolin-5(4H)-one] are 115 nM and over 10000 nM.
Regarding `O=C1CN=C(n2cnc(C3CC3)c2)C=C2c3cccc(-c4cnco4)c3CCN12` [Example 109, 2-(4-cyclopropyl-1H-imidazol-1-yl)-9-(oxazol-5-yl)-7,8-dihydro-[1,4]diazepino[7,1-a]isoquinolin-5(4H)-one], the IC50 in test [1] was found to be 10 nM; in test [2], 1800 nM.
Take `O=C1CN=C(n2cnc(C3CC3)c2)C=C2c3ccnc(-c4ccc(F)nc4)c3CCN12` [Example 110, 2-(4-cyclopropyl-1H-imidazol-1-yl)-9-(6-fluoropyridin-3-yl)-7,8-dihydro-[1,4]diazepino[7,1-a][2,6]naphthyridin-5(4H)-one]: the figures for the IC50 in test [1] and in test [2] were 270 nM and over 10000 nM, respectively.
The corresponding values for `O=C1CN=C(n2cnc(C3CC3)c2)C=C2c3ccnc(C4CC4)c3CCN12` [Example 110a, 9-cyclopropyl-2-(4-cyclopropyl-1H-imidazol-1-yl)-7,8-dihydro-[1,4]diazepino[7,1-a][2,6]naphthyridin-5(4H)-one] are 328 nM and over 2000 nM.
With `O=C1CN=C(n2cnc(C3CC3)n2)C=C2c3ccnc(C4CC4)c3CCN12` [Example 110b, 9-cyclopropyl-2-(3-cyclopropyl-1H-1,2,4-triazol-1-yl)-7,8-dihydro-[1,4]diazepino[7,1-a][2,6]naphthyridin-5(4H)-one], the IC50 is 758 nM in test [1] and over 10000 nM in test [2].
Usually inhibition stands for the share of the control response that was lost under treatment. Turning to `CO[C@H](C)c1cn(C2=NCC(=O)N3CCc4c(ccnc4C4CC4)C3=C2)cn1` [Example 110c, (R)-9-cyclopropyl-2-(4-(1-methoxyethyl)-1H-imidazol-1-yl)-7,8-dihydro-[1,4]diazepino[7,1-a][2,6]naphthyridin-5(4H)-one], the inhibition at 2 µM in test [1] amounted to 72%. For the same compound, the IC50 in test [2] was over 10000 nM.
Take `O=C1CN=C(n2cnc(C(F)F)c2)C=C2c3ccnc(C4CC4)c3CCN12` [Example 110d, 9-cyclopropyl-2-(4-(difluoromethyl)-1H-imidazol-1-yl)-7,8-dihydro-[1,4]diazepino[7,1-a][2,6]naphthyridin-5(4H)-one]: the inhibition at 2 µM in test [1] turned out to be 57%. Moreover, the IC50 in test [2] was over 10000 nM.
Turning to `CC(C)(C)c1cn(C2=NCC(=O)N3CCc4c(cccc4C4CCCO4)C3=C2)cn1` (centres unmarked) [Example 112, 2-(4-(tert-butyl)-1H-imidazol-1-yl)-9-(tetrahydrofuran-2-yl)-7,8-dihydro-[1,4]diazepino[7,1-a]isoquinolin-5(4H)-one], the IC50 is 515 nM in test [1] and over 10000 nM in test [2].

These data come from patent US8853203B2, “Diazepinone derivatives” (Novartis AG, priority 2012, dated 2014).
